# In US11414436B2, “Non-coordinating anion type activators containing cation having large alkyl groups” (ExxonMobil Chemical Patents Inc., priority 2018, dated 2022):
# Values joined by “and” are separate entries in the source; they are usually repeats but may differ in a detail not shown here. Equal entries are not always repeated.
# Tests used:
# [1] = Propylene homopolymerization in parallel pressure reactor, MCN-1 with ammonium borate activators; conditions: for activity: isohexane; for average catalyst activity, comparison of the four activators (FIG. 6): MCN-1, polypropylene at 100° C., Table 7 runs
# [2] = Ethylene-octene copolymerization in parallel pressure reactor, non-metallocene catalyst CAT-3; conditions: catalyst CAT-3 20 nmol; activator 1.1 equiv; 100° C.; 135 psi; 1-octene 100 uL; TNOAL 0.5 umol
# Description: (§1) Solutions of the metal complexes and activators were prepared in a drybox using toluene or methylcyclohexane. Concentrations were typically 0.2 mmol/L. Tri-n-octylaluminum (TNOAL, neat, AkzoNobel) was typically used as a scavenger. Concentration of the TNOAL solution in toluene ranged from 0.5 to 2.0 mmol/L.
# (§2) Polymerizations were carried out in a parallel pressure reactor, as generally described in U.S. Pat. Nos. 6,306,658; 6,455,316; 6,489,168; WO 00/09255; and Murphy, V. et al. (2003) “A Fully Integrated High-Throughput Screening Methodology for the Discovery of New Polyolefin Catalysts: Discovery of a New Class of High Temperature Single-Site Group (IV) Copolymerization Catalysts,” J. Am. Chem. Soc., v. 125, pp. 4306-4317, each of which is fully incorporated herein by reference. […] Although the specific quantities, temperatures, solvents, reactants, reactant ratios, pressures, and other variables are frequently changed from one polymerization run to the next, the following describes a typical polymerization performed in a parallel pressure reactor.
# (§3) Ethylene-Octene Copolymerization (EO).
# (§4) A pre-weighed glass vial insert and disposable stirring paddle were fitted to each reaction vessel of the reactor, which contains 48 individual reaction vessels. The reactor was then closed and purged with ethylene. Each vessel was charged with enough solvent (typically isohexane) to bring the total reaction volume, including the subsequent additions, to the desired volume, typically 5 mL. 1-octene, if required, was injected into the reaction vessel and the reactor was heated to the set temperature and pressurized to the predetermined pressure of ethylene, while stirring at 800 rpm. The aluminum compound (such as tri-n-octylaluminum) in toluene was then injected as scavenger followed by addition of the activator solution (typically 1.0-1.2 molar equivalents).
# (§5) The catalyst (and activator solutions for Run A) were all prepared in toluene. The catalyst solution (typically 0.020-0.080 μmol of metal complex) was injected into the reaction vessel and the polymerization was allowed to proceed until a pre-determined amount of ethylene (quench value typically 20 psi) had been used up by the reaction. Alternatively, the reaction may be allowed to proceed for a set amount of time (maximum reaction time typically 30 minutes). Ethylene was added continuously (through the use of computer controlled solenoid valves) to the autoclaves during polymerization to maintain reactor gauge pressure (P setpt, +/−2 psig) and the reactor temperature (T) was monitored and typically maintained within +/−1° C. The reaction was quenched by pressurizing the vessel with compressed air. After the reactor was vented and cooled, the glass vial insert containing the polymer product and solvent was removed from the pressure cell and the inert atmosphere glove box, and the volatile components were removed using a Genevac HT-12 centrifuge and Genevac VC3000D vacuum evaporator operating at elevated temperature and reduced pressure. The vial was then weighed to determine the yield of the polymer product. The resultant polymer was analyzed by Rapid GPC (see below) to determine the molecular weight, by FT-IR (see below) to determine percent octene incorporation, and by DSC (see below) to determine melting point (Tm).
# (§6) Equivalence is determined based on the mole equivalents relative to the moles of the transition metal in the catalyst complex.
# (§7) Activators of the present disclosure can also be used for activating non-metallocene catalysts for polymerization of olefins. Table 4 illustrates copolymerization of ethylene and octene using activators of the present disclosure and non-metallocene catalysts (CAT-1, CAT-2, CAT-3, and CAT-4).
# [3] = Ethylene-octene copolymerization in parallel pressure reactor, non-metallocene catalyst CAT-4; conditions: catalyst CAT-4 20 nmol; activator 1.1 equiv; 100° C.; 135 psi; 1-octene 100 uL; TNOAL 0.5 umol
# Description: as §1, §2, §3, §4, §5, §6, §7
# [4] = Ethylene-octene copolymerization in parallel pressure reactor, non-metallocene catalyst CAT-1; conditions: catalyst CAT-1 20 nmol; activator 1.1 equiv; 100° C.; 135 psi; 1-octene 100 uL; TNOAL 0.5 umol
# Description: as §1, §2, §3, §4, §5, §6, §7
# [5] = Ethylene-octene copolymerization in parallel pressure reactor, non-metallocene catalyst CAT-2; conditions: catalyst CAT-2 20 nmol; activator 1.1 equiv; 100° C.; 135 psi; 1-octene 100 uL; TNOAL 0.5 umol
# Description: as §1, §2, §3, §4, §5, §6, §7
# [6] = Activator Equiv 1.0, TNOAL 0.25 umol, MCN-1 30 nmol, 85° C., propylene 135 psi
# [7] = Activator Equiv 1.0, TNOAL 0.50 umol, MCN-1 30 nmol, 85° C., propylene 135 psi
# [8] = Activator Equiv 1.0, TNOAL 0.75 umol, MCN-1 30 nmol, 85° C., propylene 135 psi
# [9] = Activator Equiv 1.2, TNOAL 0.25 umol, MCN-1 30 nmol, 85° C., propylene 135 psi
# [10] = Activator Equiv 1.2, TNOAL 0.50 umol, MCN-1 30 nmol, 85° C., propylene 135 psi
# [11] = Activator Equiv 1.2, TNOAL 0.75 umol, MCN-1 30 nmol, 85° C., propylene 135 psi
# [12] = Activator Equiv 1.4, TNOAL 0.25 umol, MCN-1 30 nmol, 85° C., propylene 135 psi
# [13] = Activator Equiv 1.4, TNOAL 0.50 umol, MCN-1 30 nmol, 85° C., propylene 135 psi
# [14] = Activator Equiv 1.4, TNOAL 0.75 umol, MCN-1 30 nmol, 85° C., propylene 135 psi
# [15] = Activator Equiv 1.6, TNOAL 0.25 umol, MCN-1 30 nmol, 85° C., propylene 135 psi
# [16] = Activator Equiv 1.6, TNOAL 0.50 umol, MCN-1 30 nmol, 85° C., propylene 135 psi
# [17] = Activator Equiv 1.6, TNOAL 0.75 umol, MCN-1 30 nmol, 85° C., propylene 135 psi
# [18] = propylene 150 psi, 100° C., MCN-1 = 30 nmol, activator = 33 nmol, TNOAL 500 nmol
Compound,"activity [1, 6]","activity [1, 7]","activity [1, 8]","activity [1, 9]","activity [1, 10]","activity [1, 11]","activity [1, 12]","activity [1, 13]","activity [1, 14]","activity [1, 15]","activity [1, 16]","activity [1, 17]","average catalyst activity, comparison of the four activators (FIG. 6) [1]","activity [1, 18]",activity [2],activity [3],activity [4],activity [5],"activity ([1]; propylene, 85 °C, 135 psi, MCN-1 = 20 nmol, activator = 20 nmol, TNOAL 500 nmol) [kg/mmol/h]"
"CCCCCCCCCCCCCCCCCC[NH+](CCCCCCCCCCCCCCCCCC)c1ccc(C)cc1.Fc1c(F)c(F)c2c(F)c([B-](c3c(F)c(F)c4c(F)c(F)c(F)c(F)c4c3F)(c3c(F)c(F)c4c(F)c(F)c(F)c(F)c4c3F)c3c(F)c(F)c4c(F)c(F)c(F)c(F)c4c3F)c(F)c(F)c2c1F [DOdTH-BF28, 4-methyl-N,N-dioctadecylbenzenaminium-BF28]",271 kg/mmol/h and 259 kg/mmol/h and 246 kg/mmol/h,212 kg/mmol/h and 194 kg/mmol/h and 175 kg/mmol/h,138 kg/mmol/h and 132 kg/mmol/h and 120 kg/mmol/h,354 kg/mmol/h and 295 kg/mmol/h and 281 kg/mmol/h,242 kg/mmol/h and 211 kg/mmol/h and 191 kg/mmol/h,168 kg/mmol/h and 142 kg/mmol/h and 134 kg/mmol/h,315 kg/mmol/h and 284 kg/mmol/h and 261 kg/mmol/h,225 kg/mmol/h and 186 kg/mmol/h and 180 kg/mmol/h,173 kg/mmol/h and 153 kg/mmol/h and 144 kg/mmol/h,283 kg/mmol/h and 267 kg/mmol/h,265 kg/mmol/h and 196 kg/mmol/h and 188 kg/mmol/h,174 kg/mmol/h and 150 kg/mmol/h and 134 kg/mmol/h,somewhat lower activity,138 kg/mmol/h and 153 kg/mmol/h and 101 kg/mmol/h,838 kg/mmol/h and 829 kg/mmol/h,48 kg/mmol/h and 46 kg/mmol/h,3873 kg/mmol/h and 3497 kg/mmol/h,1034 kg/mmol/h and 533 kg/mmol/h,–
"N,N-dimethylanilinium tetrakis(heptafluoronaphthalen-2-yl)borate [DMAH-BF28, reference compound]",604 kg/mmol/h and 502 kg/mmol/h,394 kg/mmol/h and 352 kg/mmol/h,233 kg/mmol/h and 212 kg/mmol/h,703 kg/mmol/h and 673 kg/mmol/h,506 kg/mmol/h and 459 kg/mmol/h,332 kg/mmol/h and 256 kg/mmol/h,709 kg/mmol/h and 677 kg/mmol/h,554 kg/mmol/h and 431 kg/mmol/h,370 kg/mmol/h and 334 kg/mmol/h,803 kg/mmol/h,511 kg/mmol/h and 467 kg/mmol/h,404 kg/mmol/h and 356 kg/mmol/h,highest average activities,175 kg/mmol/h and 231 kg/mmol/h and 160 kg/mmol/h and 121 kg/mmol/h and 211 kg/mmol/h and 188 kg/mmol/h and 190 kg/mmol/h,808 kg/mmol/h and 691 kg/mmol/h,59 kg/mmol/h and 54 kg/mmol/h,3494 kg/mmol/h and 3144 kg/mmol/h,1161 kg/mmol/h and 724 kg/mmol/h,138
